This is an account of results in patent publication US10709724B2, “Methods of treating mitochondrial dysfunction” (Ecole Polytechnique Federale de Lausanne (EPFL), priority 2011, dated 2020).

Molecules are shown by their SMILES.

The test system of test [1] is C2C12 myotubes, Hepa1.6 and HEK293T cells. Kind of test: Total intracellular NAD+ content after NR in cell lines. Format: cell-based, murine and human. The conditions noted are these: 24 hrs. An excerpt: Murine Hepa1.6 and HEK293T cells were maintained in 4.5 g/L glucose DMEM, 10% FCS. For the transfection of HEK293T cells JetPei was used (Polyplus transfections, Illkirch, France) according to the description of the company. PARP-2 depletion and overexpression took place as described in (Bai et al. 2007).
C2C12 cells were maintained in 4.5 g/L glucose DMEM, 10% FCS and were differentiated in 4.5 g/L glucose DMEM, 2% horse serum for 2 days, when cells were considered myofibers. PARP-2 was depleted from C2C12 cells using lentiviral shRNA system (MISSION Lentiviral Vectors, Sigma-Aldrich). The vectors contained the interfering and control sequences described in (Bai et al. 2007). C2C12 cells were transduced with 20 MOI virus and were selected with […] puromycin. Cells withstanding puromycin selection were subcultured. […] The efficiency of knock-down at the mRNA level was assessed by RT-qPCR.
NAD^+ NAM Determination. NAD^+ levels in cultured cells were determined using a commercial kit (Enzychrom™, BioAssays Systems, CA). For tissue samples NAD^+ and NAM levels were determined as described in (Sauve et al., 2005). […] Clear supernatant was injected onto HPLC C-18 column with 20 mM ammonium acetate eluent to separate NAD^+ and NAM from other cellular components, NAD^+ and NAM peaks (260 nm absorbance) were collected. […]

A further test deals with C2C12 myotubes. Kind of test: Intracellular NAD+ content in C2C12 myotubes treated with PARP inhibitors. The arrangement: intracellular NAD+ over time / H2O2-induced NAD+ depletion: dose or concentration left out as unconfirmed. The test is classed as cell-based. How it is done:
Cell Culture, Transfection, Adenoviral Infection and Mitochondrial Characterization. HEK293T, MEF and C2C12 cells were cultured in DMEM (4.5 g/l glucose, 10% FCS). PARP-1^+/+ and PARP-1^−/− MEFs were prepared as described in (Menissier-de Murcia et al., 1997). SIRT1 and MEFs were kindly provided by Fred Alt (Chea et al., 2005). SIRT3 MER were established according to standard techniques from conditional SERT3^−/− mice. (Picard, F., Gehin, M., Annicotte, J., Rocchi, S., Champy, M. F., O'Malley, B. W., Chambon, P., and Auwerx, J. (2002). SRC-1 and TIF2 control energy balance between white and brown adipose tissues. Cell 111, 931-941.) Deletion of the SIRT3 gene was induced via infection with adenovirus encoding for the Cre recombinase. HEK293T cells were transfected using JetPei reagent (Polyplus Transfections, Illkirch, France) according to the manufacturer's instructions. C2C12 cells were differentiated in DMEM (4.5 g/L glucose, 2% horse serum) after reaching confluency for 2 days, followed by 2 days of PJ34 treatment (10 μM). PARP-1 shRNA constructs were described in (Shah et al., 2005). Human PARP-1 and siRNAs were obtained from Dharmacon (Thermo Scientific). The adenovirus encoding for FLAG-HA-PGC-1α, control and SIRT1 shRNAs were a kind gift from Pere Puigserver and were used (MOI=100) in C2C12 myotubes as described (Canto et al., 2009). Mitochondrial charge determination was performed as described (Bai et al., 2001) and DNA strand breaks were quantified by TUNEL assays according to the manufacturer's instructions (Millipore).
NAD^+ NAM Determination. NAD^+ levels in cultured cells were determined using a commercial kit (Enzychrom™, BioAssays Systems, CA). For tissue samples NAD^+ and NAM levels were determined as described in (Sauve et al., 2005). In brief, to a weighed aliquot of frozen pulverized tissue we added as standards, ^18O-NAD^+ (typically 2.00 nmol) and ^18O-NAM (typically 2.00 nmol). 70 L of ice-cold 7% perchloric acid was then added and the sample was vortexed and sonicated three times, then centrifuged. Clear supernatant was removed and neutralized by additions of 3 M NaOH and 1 M phosphate buffer (pH=9), then centrifuged. Clear supernatant was injected onto HPLC C-18 column with 20 mM ammonium acetate eluent to separate NAD^+ and NAM from other cellular components, NAD^+ and NAM peaks (260 nm absorbance) were collected. Collections were lyophilized to dryness and subjected to MALDI-TOF analysis. For NAD^+ measurement, ratio of intensities for m/z=664 and 666 peaks, corresponding to ^16O- and ^18O-NAD^+ isotopomers, was multiplied by 2.00 nmol and then divided by tissue weight to determine NAD+ concentration in the sample. For NAM the ratio of intensities for m/z=123 and 125 peaks, corresponding to ^16O- and ^18O-NAM isotopomers, was multiplied by 2.00 nmol and then divided by tissue weight to determine NAM concentration in the sample. Corrections were applied for isotopic abundance. Other NAD metabolites were determined as previously described (Yang and Sauve, Synthesis of nictotinamide riboside and derivatives: effective agents for increasing nictinomide adenine dinucleotide concentrations in mammalian cells. J Med Chem 50, 6458-6461 (2006)).

The next test has as its system SIRT1. Kind of test: SIRT1 activity (PGC-1α acetylation) and SIRT1 protein in C2C12 myotubes. Format: cell-based. Here is the method: Immunoprecipitation, SDS-PAGE, Western Blotting. Cells were lysed in lysis buffer (50 mM Tris, […], EDTA 1 mM, NP40 1%, nicotinamide 5 mM, Na-butyrate 1 in M, protease inhibitors pH7.4). Proteins were separated by SDS-PAGE and transferred onto nitrocellulose membranes. The origin of the primary and secondary antibodies used can be found as supplemental experimental procedures. Reactions were developed by enhanced chemiluminescence (Amersham, Little Chalfont, UK), PGC-1α, FOXO1 and Ndufa9 acetylation levels were analyzed by immunoprecipitation from cellular or nuclear lysates of tissues with anti-PGC-1α (Millipore), anti-FOXO1 (Cell Signaling, Danvers, Mass., USA) and anti-Ndufa9 (Abcam) antibody followed by Western blot using an acetyl-lysine antibody (Cell Signaling) that was normalized to total PGC-1a/FOXO1/Ndufa9 levels (Lagouge et al., 2006; Rodgers et al., 2005). In HEK293T cells HA-tagged PGC-1α was overexpressed and was immunoprecipitated using an anti-HA. In C2C12 myotubes, FLAG-HA tagged PGC-1α was introduced through adenoviral delivery 2 days before treatments, then IP was performed using anti-FLAG antibody and samples were processed as described. All blots were quantified by densitometry using ImageJ software. Poly(ADP-Ribose) detection was performed as previously described with slight modifications (Bai et al., PARP-1 inhibition increases mitochondrial metabolism through SIRT1 activation. Cell Metab 13, 461-468. (2011)) Briefly, PAR was detected by using a monoclonal anti-PAR antibody (Alexis, Lausanne Switzerland) by Western blotting of total protein lysates, using either […] of total worm protein lysates, […] of liver protein lysate or 200 g of muscle total protein extracts. PGC-1 acetylation was determined using PGC-1 immunoprecipitates from 2 mg of protein extracts, as described in Canto et al. (Canto et al., AMPK regulates energy expenditure by modulating NAD+ metabolism and SIRT1 activity. Nature 458, 1056 (2009)).

On to `NC(=O)c1ccc[n+]([C@@H]2O[C@H](CO)[C@@H](O)[C@H]2O)c1` [NR, nicotinamide riboside], for which the “ability to increase intracellular NAD+ compared with NMN and NA” value in test [1] (0.5 mM) is reported as “at least, similar to that of these other precursors”. In test [1], the “intracellular NAD+ levels” value is “dose-dependently increased intracellular NAD^+ levels”.
In the case of `CN(C)CC(=O)Nc1ccc2[nH]c(=O)c3ccccc3c2c1` [PJ34], the “intracellular NAD+ at 24 hrs, dose dependence” value with C2C12 myotubes (24 hrs (FIG. 6F)) is given as “dose dependent manner”. Also, the “intracellular NAD+ content” value in the test on C2C12 myotubes (24 hrs, 1 mM (FIG. 13B)) was “leads to increased intracellular content”. In the test on C2C12 myotubes (H2O2 500 μM, 6 hrs, PJ34 1 μM), the “intracellular NAD+ during H2O2 treatment” value was “prevented the decrease in intracellular NAD^+”. For the same compound, the “H2O2-induced NAD+ depletion” value with C2C12 myotubes (PJ34 24 hrs, H2O2 1 hr (FIG. 13B)) is given as “global inhibition of PARP activity with PJ34 did”. For the same compound, the “intracellular NAD+ over time” value in the test with C2C12 myotubes (PJ34 for the times indicated (FIG. 6D)) is listed as “gradual increase in NAD^+, becoming significant 24 hrs after the initiation of the treatment”. The SIRT1 protein levels result in the test with SIRT1 (24 hrs) is “did not change SIRT1 protein levels”. Besides, the “PGC-1α acetylation (SIRT1 activation)” value with SIRT1 (24 hrs, dose-dependent (FIG. 6F)) is given as “deacetylation of PGC-1α”. Besides, in the test with SIRT1 (H2O2 500 μM, 6 hrs, PJ34 1 μM), the “SIRT1 function (PGC-1α acetylation) during H2O2 treatment” value was “enhanced SIRT1 function” and the “SIRT1 protein levels during H2O2 treatment” value was “SIRT1 protein levels did not change”.
